# Measurements taken from patent publication US20070032410A1, “COMPOSITIONS AND METHODS FOR THE TREATMENT OF PSYCHIATRIC DISORDERS” (Atossa Healthcare, Inc., priority 2000, published 2007).
# *1 amine or outer side, *2 acyl side, *3 side chain or, on linkers, in order; H or OH if unused. Where a SMILES comes first, the peptide text is derived from it. Bridges are numbered along the chain shown (N, C = ends). X1 = O=C(CCC[*:2])[*:1]
# System: tracheal/bronchial epithelial cell membrane inserts (EpiAirway)
# Assay: Permeation of carbetocin formulations across tracheal/bronchial epithelial cell membrane inserts (EIA of basolateral media)
# Format: in vitro ADME
# Settings: human, 1 h
# Experimental: Permeation studies on varying formulations of carbetocin were completed using tracheal/bronchial epithelial cell membrane inserts. Samples were evaluated for appearance, color, clarity, pH, osmolality, cell viability using an MTT assay, cytotoxicity using an LDH assay, and transepithelial resistance and permeation.
# Tracheal/bronchial epithelial cell membrane inserts (EpiAirway, MatTek Corp., Ashland, Mass.) were received the day before the experiment. Each tissue insert was placed in a well of a 6 well plate which contained 0.9 ml of serum free media and cultured at 37° C. for 24 hours to allow the tissues to equilibrate. The day of the experiment, transepithelial electrical resistance measurements were taken for each insert using a Tissue Resistance Measurement Chamber connected to an Epithelial Voltohmeter (World Precision Instruments, Inc., Sarasota, Fla.).
# After the background transepithelial electrical resistance was determined, 1 ml of media was placed in the bottom of each well in a six well plate. The inserts were inverted and drained and placed into new wells with fresh media. For samples 1-12, 100 μl of the formulation to be tested was then added to an insert. For samples 13-92, 25 μl of the formulation was added to each insert. The inserts were placed in a shaking incubator at 100 rpm and 37° C. for one hour. The tissue inserts were then removed from the incubator. […]
smiles,measurement,value
"CC[C@H](C)[C@@H]1NC(=O)[C@H](Cc2ccc(OC)cc2)NC(=O)CCCSC[C@@H](C(=O)N2CCC[C@H]2C(=O)N[C@@H](CC(C)C)C(=O)NCC(N)=O)NC(=O)[C@H](CC(N)=O)NC(=O)[C@H](CCC(N)=O)NC1=O [carbetocin, 1-butanoic acid-2-(O-methyl-L-tyrosine)-1-carbaoxytocin] (Y(Me)IQNCPLG-NH2; linker N-5 via X1)",permeation,less than 1.0%
